Values quoted from earlier work in patent US20080008798A1, “Salts of astaxathin esters” (priority 2002, published 2008).

What was measured:
flesh pigmentation = conditions: feeding non-formulated astaxanthin
[1] = per week; storage of the manufactured feed under ambient conditions

CC1=C(/C=C/C(C)=C/C=C/C(C)=C/C=C/C=C(C)/C=C/C=C(C)/C=C/C2=C(C)C(=O)[C@@H](O)CC2(C)C)C(C)(C)C[C@H](O)C1=O [astaxanthin]
pigmentation effect (flesh pigmentation): almost no pigmentation effect | contained pigment lost through degradation during storage [1]: about 2%
